ChEMBL document CHEMBL5321233, “Biological activity of 1,2,3-triazole-2-amino-1,4-naphthoquinone derivatives and their evaluation as therapeutic strategy for malaria control” (Eur J Med Chem, 2023)
Activity calls are given as the source filed them. No cut-off for these calls is given here.

Assays:
HepG2 = assay: Cytotoxicity against human HepG2 cells incubated for 24 hrs by MTT assay; format: functional
[1] = Acute toxicity in Albino Swiss mouse assessed as change in urine color at 300 mg/kg, po administered as single dose measured after 14 days; format: organism-based; settings: in vivo, 336 h, time 14 day
[2] = Acute toxicity in Albino Swiss mouse assessed as escape reaction at 300 mg/kg, po administered as single dose measured after 14 days; format: organism-based; settings: in vivo, 336 h, time 14 day
Plasmodium berghei [3] = assay: Antimalarial activity against Plasmodium berghei ANKA infected in Albino Swiss mouse assessed as half-survival time at 30 mg/kg, po administered for 4 consecutive days measured for 30 days (reference value: 16 day); format: functional; settings: time 30 day
Plasmodium berghei [4] = assay: Antimalarial activity against Plasmodium berghei ANKA infected in Albino Swiss mouse assessed as half-survival time at 15 mg/kg, po administered for 4 consecutive days measured for 30 days (reference value: 16 day); format: functional; settings: time 30 day
[5] = Acute toxicity in Albino Swiss mouse assessed as change in motor function at 300 mg/kg, po administered as single dose measured after 14 days; format: organism-based; settings: in vivo, 336 h, time 14 day
Plasmodium berghei [6] = assay: Antimalarial activity against Plasmodium berghei ANKA infected in Albino Swiss mouse assessed as reduction in parasitemia at 15 mg/kg, po administered for 4 consecutive days measured after day 5 relative to control; format: functional; parameters: scale not given: the % may be the effect or the level left; settings: time 5 day
[7] = Acute toxicity in Albino Swiss mouse assessed as signs of cyanosis at 300 mg/kg, po administered as single dose measured after 14 days; format: organism-based; settings: in vivo, 336 h, time 14 day
[8] = Acute toxicity in Albino Swiss mouse assessed as behavioural toxicity at 300 mg/kg, po administered as single dose measured after 14 days; format: organism-based; settings: in vivo, 336 h, time 14 day
[9] = Acute toxicity in Albino Swiss mouse assessed as change in sensory function at 300 mg/kg, po administered as single dose measured after 14 days; format: organism-based; settings: in vivo, 336 h, time 14 day
[10] = Acute toxicity in Albino Swiss mouse assessed as change in relative weight of kidney at 300 mg/kg, po administered as single dose measured after 14 days; format: organism-based; settings: in vivo, 336 h, time 14 day
[11] = Acute toxicity in Albino Swiss mouse assessed as aggressiveness at 300 mg/kg, po administered as single dose measured after 14 days; format: organism-based; settings: in vivo, 336 h, time 14 day
[12] = Toxicity in Albino Swiss mouse infected with Plasmodium berghei ANKA assessed as mortality rate at 15 to 30 mg/kg, po administered for 4 consecutive days measured for 14 days relative to control; format: organism-based; settings: in vivo, dose 15-30 mg/kg, time 14 day, read-out: Activity
Plasmodium berghei [13] = assay: Antimalarial activity against Plasmodium berghei ANKA infected in Albino Swiss mouse assessed as reduction in parasitemia at 15 mg/kg, po administered for 4 consecutive days measured after day 7 relative to control; format: functional; parameters: scale not given: the % may be the effect or the level left; settings: time 7 day
[14] = Acute toxicity in Albino Swiss mouse assessed as change in diarrhea at 300 mg/kg, po administered as single dose measured after 14 days; format: organism-based; settings: in vivo, 336 h, time 14 day
[15] = Cytotoxicity against African green monkey Vero cells incubated for 24 hrs by MTT assay; format: toxicity, cell-based; settings: chlorocebus sabaeus
[16] = Acute toxicity in Albino Swiss mouse assessed as change in relative weight of liver at 300 mg/kg, po administered as single dose measured after 14 days; format: organism-based; settings: in vivo, 336 h, time 14 day
[17] = Acute toxicity in Albino Swiss mouse assessed as signs of hyperemia at 300 mg/kg, po administered as single dose measured after 14 days; format: organism-based; settings: in vivo, 336 h, time 14 day
[18] = Acute toxicity in Albino Swiss mouse assessed as signs of toxicity at 300 mg/kg, po administered as single dose measured after 14 days; format: organism-based; settings: in vivo, 336 h, time 14 day
[19] = Acute toxicity in Albino Swiss mouse assessed as signs of pallor at 300 mg/kg, po administered as single dose measured after 14 days; format: organism-based; settings: in vivo, 336 h, time 14 day
[20] = Acute toxicity in Albino Swiss mouse assessed as contortions at 300 mg/kg, po administered as single dose measured after 14 days; format: organism-based; settings: in vivo, 336 h, time 14 day
Plasmodium berghei [21] = assay: Antimalarial activity against Plasmodium berghei ANKA infected in Albino Swiss mouse assessed as reduction in parasitemia at 30 mg/kg, po administered for 4 consecutive days measured after day 5 relative to control; format: functional; parameters: scale not given: the % may be the effect or the level left; settings: time 5 day
Plasmodium berghei [22] = assay: Antimalarial activity against Plasmodium berghei ANKA infected in Albino Swiss mouse assessed as reduction in parasitemia at 30 mg/kg, po administered for 4 consecutive days measured after day 7 relative to control; format: functional; parameters: scale not given: the % may be the effect or the level left; settings: time 7 day
Plasmodium falciparum = assay: Induction of morphological changes in chloroquine-resistant Plasmodium falciparum W2 trophozoites assessed as degraded cytoplasm by TEM analysis; format: functional, organism-based
[23] = Acute toxicity in Albino Swiss mouse assessed as change in urination volume at 300 mg/kg, po administered as single dose measured after 14 days; format: organism-based; settings: in vivo, 336 h, time 14 day
[24] = Acute toxicity in Albino Swiss mouse assessed as change in defecation at 300 mg/kg, po administered as single dose measured after 14 days; format: organism-based; settings: in vivo, 336 h, time 14 day
[25] = Acute toxicity in Albino Swiss mouse assessed as change in relative weight of spleen at 300 mg/kg, po administered as single dose measured after 14 days; format: organism-based; settings: in vivo, 336 h, time 14 day

Compound: CCN(CC)CCCC(C)Nc1ccnc2cc(Cl)ccc12 (configuration not stated) [CHLOROQUINE]
- CC50 (HepG2): > 200 µM
- Activity [1]: Non-Toxic
- Activity [2]: Non-Toxic
- Survival (Plasmodium berghei [3]): 26 days
- Survival (Plasmodium berghei [4]): 26 days
- Activity [5]: Non-Toxic
- Activity (Plasmodium berghei [6]): 95%
- Activity [7]: Non-Toxic
- Activity [8]: Non-Toxic
- Activity [9]: Non-Toxic
- Activity [10]: Non-Toxic
- Activity [11]: Non-Toxic
- mortality at 336 h [12]: 20%
- Activity (Plasmodium berghei [13]): 92%
- Activity [14]: Non-Toxic
- CC50 at 24 h [15]: 35.8 µM
- Activity [16]: Non-Toxic
- Activity [17]: Non-Toxic
- Activity [18]: Non-Toxic
- Activity [19]: Non-Toxic
- Activity [20]: Non-Toxic
- Activity (Plasmodium berghei [21]): 99%
- Activity (Plasmodium berghei [22]): 98%
- Activity (Plasmodium falciparum): Active
- Activity [23]: Non-Toxic
- Activity [24]: Non-Toxic
- Activity [25]: Non-Toxic
